Converted amounts (≈) assume the structure as drawn. Like-named read-outs stand apart in the source and are kept apart here.
Key:
[1] = In-vitro drug release, dialysis device, 1% HP-β-CD phosphate buffer pH 7.4, 37° C.; format: in vitro ADME; conditions: 0.1% nanostructured dispersion; released over 3 hours
Protocol: In-vitro drug release was determined at 37° C., pH 7.4 as follows: The Phase III dispersion (1 g) was transferred into a Spectra/Pore Float-A-Lyzer G2 dialysis device, which was then placed into a 50 mL locking centrifuge tube containing 40 g of 1% hydroxylpropyl-β-cyclodextrin (HP-β-CD) in phosphate buffer at pH 7.4, 37° C. The entire assembly was loaded onto a Robbins Scientific Model 400 rotating incubator. At each time point, 1 mL of sample was retrieved and fresh buffer added to replace the volume removed. Samples were measured for drug content using HPLC at λmax=239 nm.

[2] = Particle size distribution (Horiba particle size analyzer); format: physicochemical; conditions: nanodispersion of the named drug, drug delivery platform of Example 1
Protocol: Particle sizing was carried out by adding approximately 20 μL of the Phase III dispersion in a solution of 2% w/w glycerin, 0.1% w/w sodium pyrophosphate decahydrate. Particle size distribution of the Phase III nano-dispersions were measured using a Horiba LA-950V2 particle size analyzer at room temperature, i.e., 22-25° C.

[3] = Solubility of API in Phase I excipient mixtures; format: physicochemical
Protocol: Solubility of APIs were examined in different Phase I mixtures.
Initially, the solubility of fluticasone propionate was determined in 10 g of Phase I composed of a 7:3 (w/w) mixture of PHOSAL™ Medium Chain Triglycerides (“MCT”) and polyethylene glycol-400 (PEG-400). MCT, a mixture of phosphatidylcholine and medium chain triglycerides, is the hydrophobic component and PEG-400 is the hydrophilic component in this exemplary Phase I. MCT and PEG-400 were added into a glass vial and the mixture was vortexed for 2 min until the components formed a homogeneous mixture. Fluticasone propionate was added in an incremental manner and stirred at 850 rpm using a Scilogex MSH 280 Pro hot stir plate at a temperature of 37° C. Stirring was continued until saturation solubility was reached.
In order to increase the solubility of the fluticasone propionate in Phase I, mineral oil (Drakeol 600LT) was added into the composition. A Phase I containing MCT: PEG-400: mineral oil weight ratio of 7:2:1 was prepared as described above. The total amount of Phase I was 10 g. Fluticasone propionate was added in an incremental manner and the mixture was stirred for 5 min. and vortexed for 5 min after each addition of fluticasone propionate into the mixture. In this Phase I, 98.2 mg of fluticasone propionate dissolved completely in 37 min.
Another Phase I mixture containing PEG-400, polypropylene glycol (PPG), and cremophor in a weight ratio 2.9:7:0.1 was also evaluated. Cremophor was used because it is widely used as a co-solvent to enhance the solubility of poorly soluble drugs.
In this Phase I, 200.30 mg of fluticasone propionate was completely dissolved in 10 g when stirred at 1200 rpm for 2 min at 45° C.
Another Phase I mixture was produced containing 30% w/w PEG-400, 60% w/w PPG, 5% w/w MCT, 0.25% w/w cetyl alcohol, and 4.75% w/w ethanol. In 10 g of this Phase I, 180 mg fluticasone propionate dissolved completely after stirring at 1280 rpm for 15 min at 45° C.
Triamcinolone acetonide is a […] anti-inflammatory drug having low aqueous solubility.
A Phase I containing 30% w/w PEG-400, 20% w/w PPG, 0.5% w/w cetyl alcohol, 9.5% w/w ethanol, 5% w/w MCT and 35% w/w Castor oil was produced. Triamcinolone acetonide was added incrementally and the mixture stirred at 840 rpm using a Scilogex MSH 280 Pro set to 45° C.

[4] = Solubility of fluticasone propionate in nanostructured dispersions and single excipients; format: physicochemical; conditions: for solubility: oil or lipid
Protocol: Phase I was prepared containing PEG-400 at 20%, PPG at 10%, cetyl alcohol at 10%, MCT at 1%, PEG-stearate at 7%, poloxamer 407 at 2.22%, tyloxapol at 1%, polysorbate 80 at 1%, castor oil at 38%, and fluticasone propionate at 1-2%.
The composition of Phase II was sodium phosphate monobasic (0.017%), sodium phosphate dibasic (0.052%), sodium hyaluronate (0.15%), and dH2O (99.78%).
Phase I was mixed with Phase II at a weight ratio of 1:9.
The concentration of fluticasone propionate achievable in this formulation was 0.1-0.2%.
The solubility of fluticasone propionate in cetyl alcohol was 0.3 mg/ml. As just described, the final dispersion has a fluticasone propionate concentration of 1-2 mg/ml (0.1-0.2%).
In this example, cholesterol was added to obtain a higher concentration of hydrophobic excipients. The composition of Phase I was PEG-400 (20%), PPG (10%), cetyl alcohol (10%), cholesterol (2%), MCT (10%), PEG-stearate (5%), poloxamer 407 (2.22%), tyloxapol (1%), polysorbate 80 (1%), castor oil (36.9%), and fluticasone propionate (1-5%).
The final concentration of fluticasone propionate achievable in this formulation is 0.1-0.5% The maximum amount of fluticasone propionate expected to be solubilized by adding up the amount solubilized in each separate excipient is 0.06%.

[5] = test system: freshly excised cornea; assay: Ex-vivo corneal permeability, Franz-Cell diffusion chamber; format: in vitro ADME, calf; conditions: % of applied drug in 22 hours, 37° C.
From the text: Ex-vivo corneal permeability testing is a useful tool to screen formulations for their ability to penetrate ocular tissues. Using freshly excised cornea, formulations can be tested for their ability to diffuse across the cornea membrane. The ability to diffuse through biological membranes is directly related to the formulation excipients, its physical state (e.g., suspension, solution, emulsion, dispersion) and its partition coefficient (P) and log P. Fresh calf eyes were obtained from a nearby slaughterhouse and the corneas carefully excised using sterile technique. The corneas must be freshly excised and used within 1-2 hours. The corneas were excised in a sterilized laminar flow hood, in a Class 100 environment. The excisions were performed by first draining the aqueous humor followed by carefully cutting out the cornea using a scalpel for the initial incision; forceps and scissors were used to cut the remaining tissue. […] The volume was recorded, and the remaining cells filled. […] Samples were added in rapid succession by depositing 200 μL of the formulation into each donor chamber using a calibrated pipet and the times recorded. […] The samples were analyzed for API content by HPLC as described above. […] Flux can be calculated by the formula: J=Q/(A·t), where Q is the quantity of compound traversing the membrane in time t, and A is the area of exposed membrane in cm^2. […]

[6] = Encapsulation efficiency (centrifugation, HPLC); format: physicochemical; conditions: 0.1% nanostructured dispersion (Phase III); mg drug per g dispersion
Protocol: Encapsulation efficiency (mg/G) was measured by placing 1.0 g of drug-containing Phase III into a 1.5 mL centrifuge tube and centrifuging it at 6000 rpm for 10 minutes using an Eppendorf Centrifuge 5145D at room temperature. 100 μL of the centrifugate was transferred to an HPLC vial containing 900 μL of 75% acetonitrile/25% water. The samples were measured for concentration of drug, e.g., dexamethasone, by HPLC at λmax=239 nm. The concentration was calculated as mg drug per g of the Phase III dispersion.

In the case of `C[C@@H]1C[C@H]2[C@@H]3CCC4=CC(=O)C=C[C@]4(C)[C@@]3(F)[C@@H](O)C[C@]2(C)[C@@]1(O)C(=O)CO` [dexamethasone], the “in vitro drug release” value [1] is reported as “at least 25%”.

For `CCC(=O)O[C@]1(C(=O)SCF)[C@H](C)C[C@H]2[C@@H]3C[C@H](F)C4=CC(=O)C=C[C@]4(C)[C@@]3(F)[C@@H](O)C[C@@]21C` [fluticasone propionate], the D50 [2] was 0.141 μm, the D90 [2] was 0.181 μm and the “amount completely dissolved in Phase I” value ([3]; in 10 g of 5% cetyl alcohol in ethanol, 1200 rpm, 2 min, 45° C.) was 200.30 mg. For the same compound, the “amount dissolved completely in Phase I” value ([3]; in 10 g of Phase I, MCT:PEG-400:mineral oil 7:2:1, dissolved in 37 min) was 98.2 mg, the “amount dissolved in Phase I” value ([3]; in 10 g of Phase I: 30% PEG-400, 60% PPG, 5% MCT, 0.25% cetyl alcohol, 4.75% ethanol, 1280 rpm, 45° C.) was 180 mg and the “maximum concentration expected from adding the solubilized contribution of each excipient” value ([4]; Example 8 excipients) was 0.05%. For the same compound, the “fluticasone propionate concentration of final dispersion” value ([4]; Example 8 final dispersion) was 1 to 2 mg/mL, the “concentration of fluticasone propionate achievable in formulation” value ([4]; Example 8 formulation, Phase I:Phase II 1:9, by weight) was 0.1-0.2% and the “maximum amount expected to be solubilized by adding up the amount solubilized in each separate excipient” value ([4]; Example 9 excipients) was 0.06%. The “final concentration of fluticasone propionate achievable in formulation” value ([4]; Example 9 formulation with cholesterol, Phase I:Phase II 1:9) was 0.1-0.5%, the solubility ([4]; PHOSAL MCT alone, read-out: solubility in MCT) was 150 µg/mL (≈ 300 µM) and the solubility ([4]; cetyl alcohol alone, read-out: solubility in cetyl alcohol) was 300 µg/mL (≈ 599 µM).

With `CCOC(=O)O[C@]1(C(=O)OCCl)CC[C@H]2[C@@H]3CCC4=CC(=O)C=C[C@]4(C)[C@H]3[C@@H](O)C[C@@]21C` [loteprednol etabonate] the “corneal permeability, drug released into the receptor solution” value [5] was 36%, the “in vitro drug release” value [1] was 35% and the “amount of drug encapsulated” value [6] was 1.24 mg/G.

In the case of `CC1(C)O[C@@H]2C[C@H]3[C@@H]4CCC5=CC(=O)C=C[C@]5(C)[C@@]4(F)[C@@H](O)C[C@]3(C)[C@]2(C(=O)CO)O1` [triamcinolone acetonide], the “saturation solubility in Phase I” value ([3]; in 10 g of Phase I: 30% PEG-400, 20% PPG, 0.5% cetyl alcohol, 9.5% ethanol, 5% MCT, 35% castor oil, 840 rpm, 45° C.) is reported as 230 mg.

— patent US10603273B2, “Membrane-adherent self-assembled systems for treatment of ocular disorders” (Integral Biosystems LLC, priority 2014, dated 2020)
